Laboratory results: US6355658B1, “Coumarin derivatives, methods of preparation and application as medicines” (Centre National de la Recherche Scientifique, priority 1997, dated 2002)
Where two headings read alike, the source gives them in different places.

Tests used:
[1] = molecular target: T1, human thrombin (Homo sapiens, UniProt P00734); assay: Inactivation kinetics of human thrombin (chromogenic substrate H-D-Phe-Pip-Arg-pNA); format: biochemical; conditions: 25° C., pH 7.5, N.I. = non-inactivator; for kinact/KI: read-out: Ki/KI or kobs/[I], Thrombin
T1 construct: human thrombin
Protocol: (§1) The inactivating or inhibitory properties of the coumarin derivatives were tested with respect to a certain number of enzymes: human leukocyte elastase, bovine α-chymotrypsin, human thrombin and bovine trypsin. The kinetic measurements were taken at 25° C. in the following buffers: 0.1 M Hepes, 0.5 M NaCl, 0.01% Tween 80, pH 8.0 (human leukocyte elastase); 0.025 M NaH2PO4, 0.05 M KCl, pH 7.5 (α-chymotrypsin); 0.01 M Tris, 0.01 M Hepes, 0.1 M NaCl, 0.1% PEG-6000, pH 7.5 (human thrombin); 0.1 M Tris, 0.01 M CaCl2, pH 7.5 (bovine trypsin). The chromogenic substrates used to determine the activity of the enzymes are: MeOSuc-Ala2-Pro-Val-pNA (human leukocyte elastase); Suc-Ala2-Pro-Phe-pNA (α-chymotrypsin); H-D-Phe-Pip-Arg-pNA (human thrombin); N-benzoyl-Arg-pNA (bovine trypsin) (pNA: para-nitroaniline).
(§2) The interaction of a suicide substrate with a serine protease corresponds to the minimum reaction scheme described in equation 1 in which E represents the enzyme, I represents the inhibitor, E-I represents the acyl-enzyme and E-I′ represents the inactivated enzyme [Silverman R. B., 1988, “Mechanism-based enzyme inactivation: chemistry and enzymology”, volume 1 CRC Press, Boca Raton, Fla.]: [drawing 76]
(§3) When k4 is small compared to k3, equation 1 can be simplified (equation 2, [Daniels et al., 1983, J. Biol. Chem., 258: 15046-15053]): [drawing 77]
(§4) Considering the first instants of the reaction, the system reduces to a simplified equation of the form of equation 2.
(§5) The kinetic constants characterizing the inactivation of the enzymes with the coumarin derivatives were determined using either the conventional sampling method (or batchwise method) or a method placing the inhibitor and the substrate in competition (or continuous method); these methods are described by Pochet et al. [Pochet et al., 1996, J. Med. Chem., 39: 2579-2585].
(§6) The inactivation of serine proteaaes with the coumarin derivatives is thus characterized by the following constants (see Eq. 2):
(§7) KI: apparent dissociation constant of an enzyme-inhibitor complex located upstream of ki
(§8) ki: first-order rate constant for inactivation at infinite inhibitor concentration
(§9) ki/KI: index of the overall inactivating efficacy of the inhibitor.

[2] = molecular target: T2, bovine α-chymotrypsin (Bos taurus, UniProt P00766); assay: Inactivation kinetics of bovine α-chymotrypsin (chromogenic substrate Suc-Ala2-Pro-Phe-pNA); format: biochemical; conditions: 25° C., pH 7.5, N.I. = non-inactivator; for kinact/KI: TABLE 1, 2-pyridyl esters, read-out: Ki/KI or kobs/[I], α-CT
T2 construct: bovine α-chymotrypsin
Protocol: as §1, §2, §3, §4, §5, §6, §7, §8, §9

[3] = molecular target: T3, bovine trypsin (Bos taurus, UniProt P00760); assay: Inactivation kinetics of bovine trypsin (chromogenic substrate N-benzoyl-Arg-pNA); format: biochemical; conditions: 25° C., pH 7.5, N.I. = non-inactivator
T3 sequence (P00760 24-246): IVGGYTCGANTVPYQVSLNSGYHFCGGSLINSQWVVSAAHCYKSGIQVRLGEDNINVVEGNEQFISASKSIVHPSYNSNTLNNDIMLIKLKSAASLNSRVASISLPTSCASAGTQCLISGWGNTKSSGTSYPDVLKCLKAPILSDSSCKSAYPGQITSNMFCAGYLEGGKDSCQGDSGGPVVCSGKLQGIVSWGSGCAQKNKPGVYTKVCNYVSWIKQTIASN
Protocol: as §1, §2, §3, §4, §5, §6, §7, §8, §9

[4] = molecular target: T4, human leukocyte elastase (Homo sapiens, UniProt P08246); assay: Inactivation kinetics of human leukocyte elastase (chromogenic substrate MeOSuc-Ala2-Pro-Val-pNA); format: biochemical; conditions: for kinact/KI / Ki/KI or kobs/[I], LHE: 25° C., pH 8.0; for kinact/KI: inactivation phase of transient inactivation, read-out: Ki/KI or kobs/[I], LHE; for Ki/KI or kobs/[I], LHE: inactivation phase
T4 sequence (P08246 30-247 limits assumed): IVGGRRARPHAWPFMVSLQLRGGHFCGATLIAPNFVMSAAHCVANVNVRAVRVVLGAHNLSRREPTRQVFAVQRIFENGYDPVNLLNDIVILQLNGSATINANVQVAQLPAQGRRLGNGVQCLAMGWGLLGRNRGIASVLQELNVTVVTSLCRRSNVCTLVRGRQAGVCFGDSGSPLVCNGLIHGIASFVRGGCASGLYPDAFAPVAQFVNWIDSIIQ
Protocol: as §1, §2, §3, §4, §5, §6, §7, §8, §9

[5] = TABLE 3, no chloromethyl in position 6
[6] = TABLE 1, 2-pyridyl esters, inactivation phase

Compound	melting point	Ki/KI or kobs/[I], Trypsin ([3]; TABLE 3)	Ki/KI or kobs/[I], Trypsin ([3]; second table headed TABLE 3)	kinact/KI [4, 5]	Ki/KI or kobs/[I], LHE ([4]; TABLE 3)	half-reactivation time for the enzyme ([4]; compound 750 nM, HLE 100 nM)	time during which the inhibition remains at 90% ([4]; compound 750 nM, HLE 100 nM)	inhibition at 0.75 µM ([4]; compound 750 nM, HLE 100 nM, reached in less than one minute)	kinact/KI [1, 6]	Ki/KI or kobs/[I], Thrombin ([1]; TABLE 1, inactivation phase)	kinact/KI [2]	Ki/KI or kobs/[I], Trypsin ([3]; TABLE 1, 2-pyridyl esters)	Ki/KI or kobs/[I], Trypsin ([3]; TABLE 1)	kinact/KI ([4]; TABLE 1, 2-pyridyl esters)	Ki/KI or kobs/[I], LHE ([4]; TABLE 1)	Ki/KI or kobs/[I], Thrombin [1, 6]	Ki/KI or kobs/[I], Thrombin ([1]; TABLE 3)	Ki/KI or kobs/[I], Thrombin ([1]; second table headed TABLE 3)	Ki/KI or kobs/[I], α-CT [2, 5]	Ki/KI or kobs/[I], α-CT ([2]; second table headed TABLE 3)
CC(=O)OCc1ccc2oc(=O)c(C(=O)Oc3cncc(Cl)c3)cc2c1 [Id3, 5-chloro-3-pyridyl 6-acetoxymethyl-2-oxo-2H-1-benzopyran-3-carboxylate]	153 to 155 °C	N.I. N.I. N.I. N.I. N.I. N.I. N.I. — —	N.I. N.I. N.I. N.I. N.I. N.I. N.I. — —	107000 M⁻¹ s⁻¹	107000 M⁻¹ s⁻¹	–	–	–	–	–	–	–	–	–	–	–	N.I. N.I. N.I. N.I. N.I. N.I. N.I. N.I. —	N.I. N.I. N.I. N.I. N.I. N.I. N.I. N.I. —	N.I.^a N.I. N.I. N.I. N.I. N.I. N.I. N.I.	N.I.^a N.I. N.I. N.I. N.I. N.I. N.I. N.I.
Cc1ccc2oc(=O)c(C(=O)Oc3cncc(Cl)c3)cc2c1 [Ib2, 5-chloro-3-pyridyl 6-methyl-2-oxo-2H-1-benzopyran-3-carboxylate]	215 to 217 °C	N.I. N.I. N.I. N.I. N.I. N.I. N.I. — —	N.I. N.I. N.I. N.I. N.I. N.I. N.I. — —	32500 M⁻¹ s⁻¹	32500 M⁻¹ s⁻¹	35 min	80 min	90%	–	–	–	–	–	–	–	–	N.I. N.I. N.I. N.I. N.I. N.I. N.I. N.I. —	N.I. N.I. N.I. N.I. N.I. N.I. N.I. N.I. —	N.I.^a N.I. N.I. N.I. N.I. N.I. N.I. N.I.	N.I.^a N.I. N.I. N.I. N.I. N.I. N.I. N.I.
O=C(Oc1ccccn1)c1cc2cc(CCl)ccc2oc1=O [Ic′″9, 2-pyridyl 6-chloromethyl-2-oxo-2H-1-benzopyran-3-carboxylate]	125 to 129 °C	–	–	–	–	–	–	–	~240 M⁻¹ s⁻¹	~240 M⁻¹ s⁻¹	1670 M⁻¹ s⁻¹	N.I.^a — — N.I. N.I.	N.I.^a — — N.I. N.I.	420 M⁻¹ s⁻¹	420 M⁻¹ s⁻¹	–	–	–	–	–
O=C(Oc1cncc(Cl)c1)c1cc2ccccc2oc1=O [Ia3, 5-chloro-3-pyridyl 2-oxo-2H-1-benzopyran-3-carboxylate]	–	N.I. N.I. N.I. N.I. N.I. N.I. N.I. — —	–	32800 M⁻¹ s⁻¹	–	–	–	–	–	–	–	–	–	–	–	–	N.I. N.I. N.I. N.I. N.I. N.I. N.I. N.I. —	–	N.I.^a N.I. N.I. N.I. N.I. N.I. N.I. N.I.	–
CC(C)C(=O)OCc1ccc2oc(=O)c(C(=O)Oc3cncc(Cl)c3)cc2c1 [Id9, 5-chloro-3-pyridyl 6-dimethylacetoxymethyl-2-oxo-2H-1-benzopyran-3-carboxylate]	162 to 164 °C	N.I. N.I. N.I. N.I. N.I. N.I. N.I. — —	N.I. N.I. N.I. N.I. N.I. N.I. N.I. — —	45000 M⁻¹ s⁻¹	45000 M⁻¹ s⁻¹	–	–	–	–	–	–	–	–	–	–	–	N.I. N.I. N.I. N.I. N.I. N.I. N.I. N.I. —	N.I. N.I. N.I. N.I. N.I. N.I. N.I. N.I. —	N.I.^a N.I. N.I. N.I. N.I. N.I. N.I. N.I.	N.I.^a N.I. N.I. N.I. N.I. N.I. N.I. N.I.

More lines, main results first:

melting point	Ki/KI or kobs/[I], Trypsin ([3]; TABLE 3)	Ki/KI or kobs/[I], Trypsin ([3]; second table headed TABLE 3)	kinact/KI [4, 5]	Ki/KI or kobs/[I], LHE ([4]; TABLE 3)	half-reactivation time for the enzyme ([4]; compound 750 nM, HLE 100 nM)	time during which the inhibition remains at 90% ([4]; compound 750 nM, HLE 100 nM)	inhibition at 0.75 µM ([4]; compound 750 nM, HLE 100 nM, reached in less than one minute)	kinact/KI [1, 6]	Ki/KI or kobs/[I], Thrombin ([1]; TABLE 1, inactivation phase)	kinact/KI [2]	Ki/KI or kobs/[I], Trypsin ([3]; TABLE 1, 2-pyridyl esters)	Ki/KI or kobs/[I], Trypsin ([3]; TABLE 1)	kinact/KI ([4]; TABLE 1, 2-pyridyl esters)	Ki/KI or kobs/[I], LHE ([4]; TABLE 1)	Ki/KI or kobs/[I], Thrombin [1, 6]	Compound	Ki/KI or kobs/[I], Thrombin ([1]; TABLE 3)	Ki/KI or kobs/[I], Thrombin ([1]; second table headed TABLE 3)	Ki/KI or kobs/[I], α-CT [2, 5]	Ki/KI or kobs/[I], α-CT ([2]; second table headed TABLE 3)
146 to 148 °C	N.I. N.I. N.I. N.I. N.I. N.I. N.I. — —	N.I. N.I. N.I. N.I. N.I. N.I. N.I. — —	67600 M⁻¹ s⁻¹	67600 M⁻¹ s⁻¹	–	–	–	–	–	–	–	–	–	–	–	CCCC(=O)OCc1ccc2oc(=O)c(C(=O)Oc3cncc(Cl)c3)cc2c1 [Id10, 5-chloro-3-pyridyl 6-butyryloxymethyl-2-oxo-2H-1-benzopyran-3-carboxylate]	N.I. N.I. N.I. N.I. N.I. N.I. N.I. N.I. —	N.I. N.I. N.I. N.I. N.I. N.I. N.I. N.I. —	N.I.^a N.I. N.I. N.I. N.I. N.I. N.I. N.I.	N.I.^a N.I. N.I. N.I. N.I. N.I. N.I. N.I.
156 to 158 °C	N.I. N.I. N.I. N.I. N.I. N.I. N.I. — —	N.I. N.I. N.I. N.I. N.I. N.I. N.I. — —	62000 M⁻¹ s⁻¹	62000 M⁻¹ s⁻¹	–	–	–	–	–	–	–	–	–	–	–	CCC(=O)OCc1ccc2oc(=O)c(C(=O)Oc3cncc(Cl)c3)cc2c1 [Id6, 5-chloro-3-pyridyl 6-propionyloxymethyl-2-oxo-2H-1-benzopyran-3-carboxylate]	N.I. N.I. N.I. N.I. N.I. N.I. N.I. N.I. —	N.I. N.I. N.I. N.I. N.I. N.I. N.I. N.I. —	N.I.^a N.I. N.I. N.I. N.I. N.I. N.I. N.I.	N.I.^a N.I. N.I. N.I. N.I. N.I. N.I. N.I.
152 to 154 °C	–	–	–	–	–	–	–	3900 M⁻¹ s⁻¹	3900 M⁻¹ s⁻¹	5950 M⁻¹ s⁻¹	N.I.^a — — N.I. N.I.	N.I.^a — — N.I. N.I.	300 M⁻¹ s⁻¹	300 M⁻¹ s⁻¹	–	Cc1ccnc(OC(=O)c2cc3cc(CCl)ccc3oc2=O)c1 [Ic′″11, 4-methyl-2-pyridyl 6-chloromethyl-2-oxo-2H-1-benzopyran-3-carboxylate]	–	–	–	–
160 to 162 °C	–	–	–	–	–	–	–	–	N.I.	3300 M⁻¹ s⁻¹	N.I.^a — — N.I. N.I.	N.I.^a — — N.I. N.I.	200 M⁻¹ s⁻¹	200 M⁻¹ s⁻¹	N.I.	Cc1cccc(OC(=O)c2cc3cc(CCl)ccc3oc2=O)n1 [Ic′″10, 6-methyl-2-pyridyl 6-chloromethyl-2-oxo-2H-1-benzopyran-3-carboxylate]	–	–	–	–
